These results are taken from the OligoGym collection.

HELM strings list units from the 5' end as sugar, base in round brackets, then linkage (d deoxyribose, r ribose, m 2'-O-methyl, p phosphodiester). Strings are as the collection lists them, not checked against the first reports. ss, as = sense and antisense strand; [s4r] = 4'-thioribose; [fl2r] = 2'-fluoro
Note: test system not given here.

The conditions of the data set: siRNA.
In the case of “RNA1{r(G)p.[fl2r](C)p.r(A)p.r(G)p.[fl2r](C)p.r(A)p.[fl2r](C)p.r(G)p.r(A)p.[fl2r](C)p.[fl2r](U)p.[fl2r](U)p.[fl2r](C)p.[fl2r](U)p.[fl2r](U)p.[fl2r](C)p.r(A)p.r(A)p.r(G)p.r(T)p.r(T)}|RNA2{r(C)p.r(U)p.r(U)p.r(G)p.r(A)p.r(A)p.r(G)p.r(A)p.r(A)p.r(G)p.r(U)p.r(C)p.r(G)p.r(U)p.r(G)p.r(C)p.r(U)p.r(G)p.r(C)p.r(T)p.r(T)}$$$RNA1{StrandType:ss}|RNA2{StrandType:as}$”, the target mRNA knockdown amounted to 92%.
“RNA1{r(A)p.r(A)p.r(C)p.r(C)p.r(C)p.r(A)p.r(C)p.r(C)p.r(A)p.r(C)p.r(A)p.r(G)p.r(C)p.m(U)p.m(A)p.r(G)p.r(A)p.r(A)p.r(C)p.m(U)p.m(U)}|RNA2{r(A)p.r(A)p.r(G)p.m(U)p.m(U)p.r(C)p.m(U)p.m(A)p.r(G)p.r(C)p.m(U)p.r(G)p.m(U)p.r(G)p.r(G)p.m(U)p.r(G)p.r(G)p.r(G)p.m(U)p.m(U)}$$$RNA1{StrandType:ss}|RNA2{StrandType:as}$” yielded a target mRNA knockdown of 24%.
The result for “RNA1{r(A)p.r(C)p.r(G)p.r(U)p.r(C)p.r(A)p.r(C)p.r(C)p.r(G)p.r(A)p.r(G)p.r(G)p.r(A)p.r(G)p.r(A)p.r(A)p.r(G)p.m(U)p.r(A)p.r(T)p.r(T)}|RNA2{r(U)p.r(A)p.r(C)p.r(U)p.r(U)p.r(C)p.r(U)p.r(C)p.r(C)p.r(U)p.r(C)p.r(G)p.r(G)p.r(U)p.r(G)p.r(A)p.r(C)p.r(G)p.r(U)p.r(T)p.r(T)}$$$RNA1{StrandType:ss}|RNA2{StrandType:as}$” reads 69%.
The result for “RNA1{[s4r](C)p.[s4r](G)p.[s4r](U)p.[s4r](A)p.r(C)p.r(G)p.r(C)p.r(G)p.r(G)p.r(A)p.r(A)p.r(U)p.r(A)p.r(C)p.r(U)p.[s4r](U)p.[s4r](C)p.[s4r](G)p.[s4r](A)p.r(T)p.r(T)}|RNA2{r(U)p.r(C)p.r(G)p.r(A)p.r(A)p.r(G)p.r(U)p.r(A)p.r(U)p.r(U)p.r(C)p.r(C)p.r(G)p.r(C)p.r(G)p.r(U)p.r(A)p.r(C)p.r(G)p.r(T)p.r(T)}$$$RNA1{StrandType:ss}|RNA2{StrandType:as}$” reads 94.7%; that for “RNA1{m(A)p.r(G)p.m(C)p.r(C)p.m(U)p.r(C)p.m(C)p.r(A)p.m(A)p.r(A)p.m(C)p.r(U)p.m(C)p.r(C)p.m(U)p.r(A)p.m(G)p.r(C)p.m(U)p.r(T)p.r(T)}|RNA2{r(A)p.r(G)p.m(C)p.r(U)p.r(A)p.r(G)p.r(G)p.r(A)p.r(G)p.r(U)p.r(U)p.r(U)p.r(G)p.r(G)p.r(A)p.r(G)p.r(G)p.m(C)p.r(U)p.r(T)p.r(T)}$$$RNA1{StrandType:ss}|RNA2{StrandType:as}$”, 47%; that for “RNA1{r(A)p.r(A)p.r(A)p.r(C)p.r(G)p.m(U)p.r(G)p.r(A)p.r(C)p.r(U)p.r(U)p.m(U)p.r(G)p.r(G)p.r(U)p.r(U)p.r(C)p.m(C)p.r(U)p.r(T)p.r(T)}|RNA2{r(A)p.r(G)p.r(G)p.r(A)p.r(A)p.r(C)p.m(C)p.r(A)p.r(A)p.r(A)p.r(G)p.r(U)p.m(C)p.r(A)p.r(C)p.r(G)p.r(U)p.r(U)p.r(U)p.r(T)p.r(T)}$$$RNA1{StrandType:ss}|RNA2{StrandType:as}$”, 82%.
The result for “RNA1{[fl2r](C)p.r(C)p.[fl2r](G)p.r(A)p.[fl2r](A)p.r(G)p.[fl2r](A)p.r(C)p.[fl2r](G)p.r(A)p.[fl2r](A)p.r(G)p.[fl2r](C)p.r(U)p.[fl2r](A)p.r(U)p.[fl2r](G)p.r(A)p.[fl2r](A)p.r(T)p.r(T)}|RNA2{r(U)p.r(U)p.r(C)p.r(A)p.r(U)p.r(A)p.[fl2r](G)p.r(C)p.r(U)p.r(U)p.r(C)p.[fl2r](G)p.r(U)p.r(C)p.r(U)p.r(U)p.r(C)p.[fl2r](G)p.[fl2r](G)p.r(T)p.r(T)}$$$RNA1{StrandType:ss}|RNA2{StrandType:as}$” reads 23%.
In turn, “RNA1{m(C)p.r(C)p.m(G)p.r(C)p.m(C)p.r(C)p.m(G)p.r(G)p.m(C)p.r(G)p.m(G)p.r(C)p.m(G)p.r(C)p.m(C)p.r(U)p.m(U)p.r(U)p.m(A)p.r(T)p.r(T)}|RNA2{r(U)p.r(A)p.r(A)p.r(A)p.r(G)p.r(G)p.r(C)p.r(G)p.r(C)p.r(C)p.r(G)p.r(C)p.r(C)p.r(G)p.r(G)p.r(G)p.r(C)p.r(G)p.r(G)p.r(T)p.r(T)}$$$RNA1{StrandType:ss}|RNA2{StrandType:as}$” gave a target mRNA knockdown of 49%.
As to “RNA1{r(C)p.r(U)p.r(C)p.m(U)p.r(G)p.r(G)p.r(C)p.r(C)p.r(U)p.r(U)p.r(U)p.r(C)p.r(U)p.r(C)p.r(U)p.r(C)p.m(U)p.r(A)p.r(G)p.r(T)p.r(T)}|RNA2{r(C)p.r(U)p.r(A)p.r(G)p.r(A)p.r(G)p.r(A)p.r(G)p.r(A)p.r(A)p.r(A)p.r(G)p.r(G)p.r(C)p.m(C)p.r(A)p.r(G)p.r(A)p.r(G)p.r(T)p.r(T)}$$$RNA1{StrandType:ss}|RNA2{StrandType:as}$”, the target mRNA knockdown stood at 45%.
The value for “RNA1{[fl2r](U)p.r(A)p.r(A)p.r(C)p.r(C)p.r(C)p.r(C)p.r(A)p.r(A)p.r(G)p.r(A)p.r(A)p.r(C)p.r(G)p.r(G)p.r(G)p.r(C)p.r(U)p.r(U)p.r(T)p.r(T)}|RNA2{r(A)p.r(A)p.r(G)p.r(C)p.r(C)p.r(C)p.r(G)p.r(U)p.r(U)p.r(C)p.r(U)p.r(U)p.r(G)p.r(G)p.r(G)p.r(G)p.r(U)p.[fl2r](U)p.r(A)p.r(T)p.r(T)}$$$RNA1{StrandType:ss}|RNA2{StrandType:as}$” was 73%.
The value for “RNA1{r(C)p.r(U)p.r(C)p.r(U)p.r(C)p.r(C)p.[fl2r](U)p.r(A)p.r(C)p.r(C)p.r(U)p.[fl2r](U)p.r(C)p.r(U)p.r(C)p.r(C)p.[fl2r](U)p.r(C)p.r(U)p.r(T)p.r(T)}|RNA2{r(A)p.r(G)p.r(A)p.r(G)p.r(G)p.r(A)p.r(G)p.r(A)p.r(A)p.r(G)p.r(G)p.[fl2r](U)p.r(A)p.r(G)p.r(G)p.r(A)p.r(G)p.r(A)p.r(G)p.r(T)p.r(T)}$$$RNA1{StrandType:ss}|RNA2{StrandType:as}$” was 73%; that for “RNA1{r(U)p.m(U)p.r(A)p.r(C)p.r(A)p.r(A)p.r(A)p.r(G)p.r(G)p.r(A)p.r(U)p.r(C)p.r(U)p.r(C)p.r(C)p.r(U)p.r(C)p.r(C)p.r(C)p.r(T)p.r(T)}|RNA2{r(G)p.r(G)p.r(G)p.r(A)p.r(G)p.r(G)p.r(A)p.r(G)p.r(A)p.r(U)p.r(C)p.r(C)p.r(U)p.r(U)p.r(U)p.r(G)p.m(U)p.r(A)p.r(A)p.r(T)p.r(T)}$$$RNA1{StrandType:ss}|RNA2{StrandType:as}$” was 69%.
For the substance “RNA1{r(A)p.r(A)p.r(C)p.r(C)p.r(C)p.r(A)p.r(C)p.r(C)p.r(A)p.r(C)p.r(A)p.r(G)p.r(C)p.m(U)p.m(A)p.r(G)p.r(A)p.r(A)p.r(C)p.m(U)p.m(U)}|RNA2{r(A)p.r(A)p.r(G)p.r(U)p.r(U)p.r(C)p.m(U)p.m(A)p.r(G)p.r(C)p.r(U)p.r(G)p.r(U)p.r(G)p.r(G)p.r(U)p.r(G)p.r(G)p.r(G)p.r(U)p.r(U)}$$$RNA1{StrandType:ss}|RNA2{StrandType:as}$”, the target mRNA knockdown stood at 51%.
On to “RNA1{m(G)p.r(A)p.m(G)p.r(A)p.m(G)p.r(A)p.m(G)p.r(A)p.m(C)p.r(G)p.m(G)p.r(U)p.m(G)p.r(G)p.m(A)p.r(A)p.m(G)p.r(A)p.m(A)p.r(T)p.r(T)}|RNA2{r(U)p.r(U)p.r(C)p.r(U)p.r(U)p.r(C)p.r(C)p.r(A)p.r(C)p.r(C)p.m(G)p.r(U)p.r(C)p.r(U)p.r(C)p.r(U)p.r(C)p.r(U)p.r(C)p.r(T)p.r(T)}$$$RNA1{StrandType:ss}|RNA2{StrandType:as}$”, for which the target mRNA knockdown was found to be 56%.
The value for “RNA1{r(G)p.r(A)p.r(A)p.r(A)p.r(C)p.r(U)p.r(G)p.r(G)p.r(U)p.r(A)p.r(C)p.r(U)p.r(U)p.r(U)p.r(C)p.r(C)p.r(C)p.r(C)p.r(C)p.r(T)p.r(T)}|RNA2{r(G)p.r(G)p.r(G)p.r(G)p.r(G)p.r(A)p.r(A)p.r(A)p.r(G)p.[fl2r](U)p.r(A)p.r(C)p.r(C)p.r(A)p.r(G)p.[fl2r](U)p.[fl2r](U)p.[fl2r](U)p.r(C)p.r(T)p.r(T)}$$$RNA1{StrandType:ss}|RNA2{StrandType:as}$” was 26%; that for “RNA1{r(A)p.r(G)p.r(U)p.r(U)p.r(U)p.r(C)p.[fl2r](U)p.[fl2r](A)p.r(G)p.r(G)p.r(G)p.r(C)p.r(C)p.r(G)p.r(U)p.r(G)p.r(G)p.r(C)p.r(C)p.r(T)p.r(T)}|RNA2{r(G)p.r(G)p.r(C)p.r(C)p.r(A)p.r(C)p.r(G)p.r(G)p.r(C)p.r(C)p.r(C)p.[fl2r](U)p.r(A)p.r(G)p.r(A)p.r(A)p.r(A)p.r(C)p.r(U)p.r(T)p.r(T)}$$$RNA1{StrandType:ss}|RNA2{StrandType:as}$” was 82%.
The result for “RNA1{[s4r](C)p.[s4r](G)p.[s4r](U)p.[s4r](A)p.r(C)p.r(G)p.r(C)p.r(G)p.r(G)p.r(A)p.r(A)p.r(U)p.r(A)p.r(C)p.r(U)p.[s4r](U)p.[s4r](C)p.[s4r](G)p.[s4r](A)p.r(T)p.r(T)}|RNA2{r(U)p.r(C)p.r(G)p.r(A)p.r(A)p.r(G)p.r(U)p.r(A)p.r(U)p.r(U)p.r(C)p.r(C)p.r(G)p.r(C)p.r(G)p.[s4r](U)p.[s4r](A)p.[s4r](C)p.[s4r](G)p.r(T)p.r(T)}$$$RNA1{StrandType:ss}|RNA2{StrandType:as}$” reads 88.1%; that for “RNA1{m(A)p.m(A)p.m(G)p.m(G)p.m(A)p.m(G)p.m(A)p.m(U)p.m(C)p.m(A)p.m(A)p.m(C)p.m(A)p.m(U)p.m(U)p.m(U)p.m(U)p.m(C)p.m(A)p.r(T)p.r(T)}|RNA2{r(U)p.r(G)p.r(A)p.r(A)p.r(A)p.r(A)p.r(U)p.r(G)p.r(U)p.r(U)p.r(G)p.r(A)p.r(U)p.r(C)p.r(U)p.r(C)p.r(C)p.m(U)p.m(U)p.r(T)p.r(T)}$$$RNA1{StrandType:ss}|RNA2{StrandType:as}$”, 77%.
The value for “RNA1{r(C)p.m(U)p.r(G)p.r(A)p.r(C)p.r(C)p.r(G)p.r(G)p.r(A)p.r(A)p.r(G)p.r(C)p.r(G)p.r(C)p.r(U)p.m(U)p.r(A)p.r(A)p.r(A)p.r(T)p.r(T)}|RNA2{r(U)p.r(U)p.m(U)p.r(A)p.r(A)p.r(G)p.r(C)p.r(G)p.r(C)p.r(U)p.r(U)p.r(C)p.r(C)p.r(G)p.r(G)p.r(U)p.m(C)p.r(A)p.r(G)p.r(T)p.r(T)}$$$RNA1{StrandType:ss}|RNA2{StrandType:as}$” was 85%.
